Where two headings read alike, the source gives them in different places. Where a SMILES comes first, the peptide text is derived from it. Bridges are numbered along the chain shown (N, C = ends). [ ]: non-standard residue; d: D form. The star is where a group is joined. hPhe(3-Cl-4-CF3) = N[C@@H](CCc1ccc(C(F)(F)F)c(Cl)c1)C(=O)O; NPrPhe(4-CF3) = CCCN[C@@H](Cc1ccc(C(F)(F)F)cc1)C(=O)O; NMeGly(cPent) = CN[C@H](C(=O)O)C1CCCC1; Hyp = O=C(O)[C@@H]1C[C@@H](O)CN1; NMeD = CN[C@@H](CC(=O)O)C(=O)O; NMeL = CN[C@@H](CC(C)C)C(=O)O; Morpholide = C1CN(*)CCO1; NMeA = CN[C@@H](C)C(=O)O; Ac5c = NC1(C(=O)O)CCCC1; Aze = O=C(O)[C@@H]1CCN1; Sar = CNCC(=O)O
Tests used:
[1] = target: GDP-bound KRAS wild-type protein (Homo sapiens, UniProt P01116); assay: Binding to KRAS by surface plasmon resonance (SPR), Single Cycle Kinetics; details: GDP-bound KRAS wild-type protein, read-out: KRAS KD
GDP-bound KRAS wild-type protein, sequence (P01116 whole entry): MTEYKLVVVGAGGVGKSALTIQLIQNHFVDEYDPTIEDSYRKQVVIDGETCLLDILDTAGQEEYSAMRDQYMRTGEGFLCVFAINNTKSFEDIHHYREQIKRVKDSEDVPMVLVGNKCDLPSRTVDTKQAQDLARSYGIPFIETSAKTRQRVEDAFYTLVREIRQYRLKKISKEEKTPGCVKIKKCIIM

[2] = target: GDP-bound NRAS wild-type protein (Homo sapiens, UniProt P01111); assay: Binding to NRAS by surface plasmon resonance (SPR), Single Cycle Kinetics; details: for NRAS/KRAS (ratio of KD value with respect to GDP-bound NRAS wild-type protein to KD value with respect to KRAS): SPR KD ratio NRAS/KRAS, class symbols
GDP-bound NRAS wild-type protein, sequence (P01111 whole entry): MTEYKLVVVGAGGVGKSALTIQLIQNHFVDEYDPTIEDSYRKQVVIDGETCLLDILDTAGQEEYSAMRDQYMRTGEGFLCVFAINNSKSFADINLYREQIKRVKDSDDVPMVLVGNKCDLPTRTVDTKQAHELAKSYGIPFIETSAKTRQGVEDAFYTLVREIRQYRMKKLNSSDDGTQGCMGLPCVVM

[3] = target: GDP-bound HRAS wild-type protein (Homo sapiens, UniProt P01112); assay: Binding to HRAS by surface plasmon resonance (SPR), Single Cycle Kinetics; details: for HRAS/KRAS (ratio of KD value with respect to GDP-bound HRAS wild-type protein to KD value with respect to KRAS): SPR KD ratio HRAS/KRAS, class symbols
GDP-bound HRAS wild-type protein, sequence (P01112 whole entry): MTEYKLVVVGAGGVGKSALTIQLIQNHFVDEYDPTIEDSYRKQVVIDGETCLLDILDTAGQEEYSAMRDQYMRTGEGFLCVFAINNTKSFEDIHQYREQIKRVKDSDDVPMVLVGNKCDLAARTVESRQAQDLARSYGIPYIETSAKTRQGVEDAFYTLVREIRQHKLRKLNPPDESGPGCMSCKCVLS

[4] = SPR, Single Cycle Kinetics, 1:1 binding model
[5] = SPR, GDP-bound NRAS wild-type protein vs GDP-bound KRAS wild-type protein, KD ratio class
[6] = SPR, GDP-bound HRAS wild-type protein vs GDP-bound KRAS wild-type protein, KD ratio class
[7] = SPR, GDP-bound NRAS wild-type protein vs GDP-bound KRAS wild-type protein
[8] = SPR, GDP-bound HRAS wild-type protein vs GDP-bound KRAS wild-type protein
[9] = SPR Single Cycle Kinetics, 1:1 binding model

CCO[C@@H]1C[C@H]2C(=O)NC3(CCC3)C(=O)N(C)[C@@H](C3CCCC3)C(=O)N(C)[C@H](C(=O)N(C)CC)CC(=O)N(C)[C@@H](CC)C(=O)N[C@@H]([C@@H](C)CC)C(=O)N(C)CC(=O)N(C)[C@H]3C/C=C\CCN(C3=O)[C@@H](CC3CCC(F)(F)CC3)C(=O)N(C)CC(=O)N[C@@H](CCc3cc(F)c(C(F)(F)F)c(F)c3)C(=O)N2C1 [PP1553, (2S,8S,12R,14S,20S,23S,27S,30S,36S,38Z)-20-cyclopentyl-2-[(4,4-difluorocyclohexyl)methyl]-8-[2-[3,5-difluoro-4-(trifluoromethyl)phenyl]ethyl]-12-ethoxy-N,27-diethyl-N,4,19,22,26,32,35-heptamethyl-30-[(1S)-1-methylpropyl]-3,6,9,15,18,21,25,28,31,34,42-undecaoxo-spiro[1,4,7,10,16,19,22,26,29,32,35-undecazatricyclo[34.5.1.0^10,14]dotetracont-38-ene-17,1′-cyclobutane]-23-carboxamide]
Kd [1, 4]: 0.13 nM
NRAS/KRAS (ratio of KD value for NRAS to KD value for KRAS) [2, 5]: A (a compound having 10 or more and less than 20 is denoted as A)
HRAS/KRAS (ratio of KD value for HRAS to KD value for KRAS) [3, 6]: A (a compound having 10 or more and less than 20 is denoted as A)

CCCO[C@@H]1C[C@H]2C(=O)NC3(CCC3)C(=O)N(C)[C@@H](C3CCCC3)C(=O)N(C)[C@H](C(=O)N3CCOCC3)CC(=O)N(C)[C@@H](CC(C)C)C(=O)N[C@@H]([C@@H](C)CC)C(=O)N(C)CC(=O)N(C)[C@H]3CCCCCN(C3=O)[C@@H](Cc3ccc(C(F)(F)F)cc3)C(=O)N(C)CC(=O)N[C@@H](CCc3cc(F)c(C(F)(F)F)c(F)c3)C(=O)N2C1 [PP1161]
Kd ([1]; SPR, Single Cycle Kinetics): 0.6 nM
NRAS/KRAS (ratio of KD value for NRAS to KD value for KRAS) [2, 7]: B (a compound having 3 or more and less than 10 is denoted as B)
HRAS/KRAS (ratio of KD value for HRAS to KD value for KRAS) [3, 8]: B (a compound having 3 or more and less than 10 is denoted as B)

CCCN1C(=O)[C@@H]2CCN2C(=O)[C@H](C)N(C)C(=O)[C@H]([C@@H](C)CC)NC(=O)[C@H](CC(C)C)N(C)C(=O)C[C@@H](C(=O)N2CCOCC2)NC(=O)[C@H](C2CCCC2)N(C)C(=O)C2(CCCC2)NC(=O)[C@@H]2C[C@@H](OCC)CN2C(=O)[C@H](CCc2ccc(C(F)(F)F)c(Cl)c2)NC(=O)CN(C)C(=O)[C@@H]1Cc1ccc(C(F)(F)F)cc1 [PP0347] ([NMeL]I[NMeA][Aze][NPrPhe(4-CF3)][Sar][hPhe(3-Cl-4-CF3)][Hyp](Et)[Ac5c][NMeGly(cPent)]D-Morpholide; lactam N-11)
Kd [1, 9]: 0.36 nM
NRAS/KRAS (ratio of KD value for NRAS to KD value for KRAS) [2, 7]: C (A compound having a KD ratio of 0.1 or more and less than 3 is denoted as C)
HRAS/KRAS (ratio of KD value for HRAS to KD value for KRAS) [3, 8]: B (a compound having 3 or more and less than 10 is denoted as B)

CCO[C@@H]1C[C@H]2C(=O)NC3(CC(C)(C)C3)C(=O)N(C)[C@@H](C(CC)CC)C(=O)N(C)[C@H](C(=O)N(C)C)CC(=O)N(C)[C@@H](C(C)C)C(=O)N[C@@H]([C@@H](C)CC)C(=O)N(C)CC(=O)N(C)[C@H]3C/C=C\CCN(C3=O)[C@@H](Cc3ccc(C(F)(F)F)cc3)C(=O)N(C)CC(=O)N[C@@H](CCc3cc(F)c(C(F)(F)F)c(F)c3)C(=O)N2C1 [PP2135]
Kd ([1]; SPR, Single Cycle Kinetics): 0.49 nM
NRAS/KRAS (ratio of KD value for NRAS to KD value for KRAS) [2, 7]: AA (a compound having 20 or more is denoted as AA)
HRAS/KRAS (ratio of KD value for HRAS to KD value for KRAS) [3, 8]: A (a compound having 10 or more and less than 20 is denoted as A)

CC[C@H](C)[C@@H]1NC(=O)[C@H](CC2CC2)N(C)C(=O)C[C@@H](C(=O)N(C)C)N(C)C(=O)[C@H](C2CCCC2)N(C)C(=O)C2(CC(C)(C)C2)NC(=O)[C@@H]2C[C@@H](F)CN2C(=O)[C@H](CCc2cc(F)c(C(F)(F)F)c(F)c2)NC(=O)CN(C)C(=O)[C@H](Cc2ccc(C)cc2)N2CC/C=C\C[C@@H](C2=O)N(C)C(=O)CN(C)C1=O [PP2804]
Kd [1, 9]: 0.033 nM
NRAS/KRAS (ratio of KD value with respect to GDP-bound NRAS wild-type protein to KD value with respect to KRAS) [2]: A (a compound having 10 or more and less than 20 is denoted as A)
HRAS/KRAS (ratio of KD value with respect to GDP-bound HRAS wild-type protein to KD value with respect to KRAS) [3]: A (a compound having 10 or more and less than 20 is denoted as A)

CC[C@H](C)[C@@H]1NC(=O)[C@H](CC)N(C)C(=O)C[C@@H](C(=O)N(C)C)N(CC)C(=O)[C@H](C2CCCC2)N(C)C(=O)C2(CCC2)NC(=O)[C@@H]2C[C@H](N3CCC(F)(F)CC3)CN2C(=O)[C@H](CCc2cc(F)c(C(F)(F)F)c(F)c2)NC(=O)CN(C)C(=O)[C@H](Cc2ccc(C(F)(F)F)cc2)N2CCCC[C@@H](C2=O)N(C)C(=O)CN(C)C1=O [PP0659]
Kd [1, 9]: 0.42 nM
NRAS/KRAS (ratio of KD value with respect to NRAS to KD value with respect to KRAS) [2, 7]: B (a compound having 3 or more and less than 10 is denoted as B)
HRAS/KRAS (ratio of KD value with respect to HRAS to KD value with respect to KRAS) [3, 8]: B (a compound having 3 or more and less than 10 is denoted as B)

CCC[C@H]1C(=O)N[C@@H]([C@@H](C)CC)C(=O)N(C)CC(=O)N(C)[C@H]2C/C=C\CCN(C2=O)[C@@H](Cc2ccc(C(F)(F)F)cc2)C(=O)N(C)CC(=O)N[C@@H](CCc2ccc(C(F)(F)F)c(OC)c2)C(=O)N2CCOC[C@H]2C(=O)NC2(CC(C)(C)C2)C(=O)N(C)[C@@H](C(CC)CC)C(=O)N(C)[C@H](C(=O)N(C)C)CC(=O)N1C [PP2935]
Kd [1, 9]: 1.5 nM
NRAS/KRAS (ratio of KD value with respect to GDP-bound NRAS wild-type protein to KD value with respect to KRAS) [2]: A (a compound having 10 or more and less than 20 is denoted as A)
HRAS/KRAS (ratio of KD value with respect to GDP-bound HRAS wild-type protein to KD value with respect to KRAS) [3]: A (a compound having 10 or more and less than 20 is denoted as A)

CCO[C@@H]1C[C@H]2C(=O)NC3(CCC3)C(=O)N(C)[C@@H](C3CCCC3)C(=O)N(C)[C@H](C(=O)N3CCOCC3)CC(=O)N(C)[C@@H](CC(C)C)C(=O)N[C@@H]([C@@H](C)CC)C(=O)N(C)CC(=O)N(C)[C@H]3C/C=C\CCN(C3=O)[C@@H](Cc3ccc(C(F)(F)F)cc3)C(=O)N(C)CC(=O)N[C@@H](CCc3ccc(C(F)(F)F)c(Cl)c3)C(=O)N2C1 [PP0825, (2S,8S,12R,14S,20S,23S,27S,30S,36S,38Z)-8-[2-[3-chloro-4-(trifluoromethyl)phenyl]ethyl]-20-cyclopentyl-12-ethoxy-27-isobutyl-4,19,22,26,32,35-hexamethyl-30-[(1S)-1-methylpropyl]-23-(morpholine-4-carbonyl)-2-[[4-(trifluoromethyl)phenyl]methyl]spiro[1,4,7,10,16,19,22,26,29,32,35-undecazatricyclo[34.5.1.0^10,14]dotetracont-38-ene-17,1′-cyclobutane]-3,6,9,15,18,21,25,28,31,34,42-undecone]
Kd ([1]; SPR, Single Cycle Kinetics): 0.23 nM
NRAS/KRAS (ratio of KD value for NRAS to KD value for KRAS) [2, 7]: A (a compound having 10 or more and less than 20 is denoted as A)
HRAS/KRAS (ratio of KD value for HRAS to KD value for KRAS) [3, 8]: A (a compound having 10 or more and less than 20 is denoted as A)

CCO[C@@H]1C[C@H]2C(=O)NC3(CCC3)C(=O)N(C)[C@@H](C3CCCC3)C(=O)N(C)[C@H](C(=O)N(C)CCOC)CC(=O)N(C)[C@@H](CC(C)C)C(=O)N[C@@H]([C@@H](C)CC)C(=O)N(C)CC(=O)N(C)[C@H]3C/C=C\CCN(C3=O)[C@@H](Cc3ccc(C(F)(F)F)cc3)C(=O)N(C)CC(=O)N[C@@H](CCc3ccc(C(F)(F)F)c(OC)c3)C(=O)N2C1 [PP1324, (2S,8S,12R,14S,20S,23S,27S,30S,36S,38Z)-20-cyclopentyl-12-ethoxy-27-isobutyl-N-(2-methoxyethyl)-8-[2-[3-methoxy-4-(trifluoromethyl)phenyl]ethyl]-N,4,19,22,26,32,35-heptamethyl-30-[(1S)-1-methylpropyl]-3,6,9,15,18,21,25,28,31,34,42-undecaoxo-2-[[4-(trifluoromethyl)phenyl]methyl]spiro[1,4,7,10,16,19,22,26,29,32,35-undecazatricyclo[34.5.1.0^10,14]dotetracont-38-ene-17,1′-cyclobutane]-23-carboxamide]
Kd [1, 4]: 0.093 nM
NRAS/KRAS (ratio of KD value for NRAS to KD value for KRAS) [2, 5]: A (a compound having 10 or more and less than 20 is denoted as A)
HRAS/KRAS (ratio of KD value for HRAS to KD value for KRAS) [3, 6]: A (a compound having 10 or more and less than 20 is denoted as A)

CCC[C@H]1C(=O)N[C@@H]([C@@H](C)CC)C(=O)N(C2CC2)CC(=O)N(C)[C@H]2C/C=C\CCN(C2=O)[C@@H](CC2CCC(F)(F)CC2)C(=O)N(C)CC(=O)N[C@@H](CCc2ccc(C(F)(F)F)c(OC)c2)C(=O)N2C[C@H](OCC)C[C@H]2C(=O)N(C)C2(CCC2)C(=O)N(C)[C@@H](C(CC)CC)C(=O)N(C)[C@H](C(=O)N(C)C)CC(=O)N1C [PP2349]
Kd ([1]; SPR, Single Cycle Kinetics): 3.8 nM
NRAS/KRAS (ratio of KD value for NRAS to KD value for KRAS) [2, 7]: A (a compound having 10 or more and less than 20 is denoted as A)
HRAS/KRAS (ratio of KD value for HRAS to KD value for KRAS) [3, 8]: A (a compound having 10 or more and less than 20 is denoted as A)

CCCN1C(=O)CN(C)C(=O)CN(C)C(=O)[C@H]([C@@H](C)CC)NC(=O)[C@H](CC(C)C)N(C)C(=O)C[C@@H](C(=O)N2CCOCC2)N(C)C(=O)[C@H](C2CCCC2)N(C)C(=O)C2(CCCC2)NC(=O)[C@@H]2CCCN2C(=O)[C@H](CCc2ccc(C(F)(F)F)c(Cl)c2)NC(=O)CN(C)C(=O)[C@@H]1Cc1ccc(C(F)(F)F)cc1 [PP0060] ([NMeL]I[Sar][Sar][NPrPhe(4-CF3)][Sar][hPhe(3-Cl-4-CF3)]P[Ac5c][NMeGly(cPent)][NMeD]-Morpholide; lactam N-11)
Kd [1, 9]: 0.099 nM
NRAS/KRAS (ratio of KD value for NRAS to KD value for KRAS) [2, 7]: B (a compound having 3 or more and less than 10 is denoted as B)
HRAS/KRAS (ratio of KD value for HRAS to KD value for KRAS) [3, 8]: B (a compound having 3 or more and less than 10 is denoted as B)

— patent publication US20240158446A1, “CYCLIC COMPOUND HAVING SELECTIVE INHIBITORY ACTION ON KRAS OVER HRAS AND NRAS” (CHUGAI SEIYAKU KABUSHIKI KAISHA, priority 2021, published 2024)
